Measurements: US10646589B2, “Thyroid stimulating hormone receptor peptides and uses thereof” (APITOPE INTERNATIONAL NV, priority 2014, dated 2020)
Counter-ions that a name gives are not always drawn.

Experiments:
[1] = system: TSHR-specific splenocyte proliferation; test: Adenoviral animal model for GD: TSHR-specific splenocyte proliferation; assay type: in vivo, DR3tg mice; settings: 10^9 Ad-TSHR; ATX-GD-459 15 nmol top dose; MMI 500 μg daily s.c. pump; to be interpreted with caution
Protocol: (§1) DR3tg mice were injected subcutaneously in the flank region with 22.5 pmol, 225 pmol and 2250 pmol ATX-GD-59 or control treatment on days −15, −13 and −11 respectively, followed by 3 injections of 22.5 nmol ATX-GD-59 (top dose/peptide) or control treatment on days −8, −6 and −4 (dose escalation schedule). Alterations in top doses, and correspondingly in dose escalation doses, are indicated per experiment.
(§2) Alterations in top doses, and correspondingly in dose escalation doses, are indicated per experiment. […] New osmotic pumps were implanted after 4 weeks. […] On day 0, mice were immunized by intramuscular injection with 10^9 or 10^10 Ad-TSHR viral particles and the immunization was repeated three weeks later. […] Mice were euthanized 5 weeks after the first immunization to obtain blood, thyroid and spleen samples. TSHR-induced splenocyte proliferation, cytokine secretion and anti-TSHR antibody levels were assessed as described below.

[2] = system: anti-TSHR antibodies (IgG class); test: Adenoviral animal model for GD: detection of anti-TSHR antibodies by ELISA; assay type: in vivo, DR3tg mice
Protocol: as §1
Anti-TSHR antibodies (IgG class) against purified recombinant TSHR-ECD (Chesapeake-Perl) were measured using ELISA. […] The signal was developed with tetramethylbenzidine (TMB).
as §2
Anti-TSHR antibodies (IgG class) against purified recombinant TSHR-ECD (Chesapeake-Perl) were measured using ELISA. […] The signal was developed with tetramethylbenzidine.
The signal was developed with tetramethylbenzidine (TMB).
Alterations in top doses, and correspondingly in dose escalation doses, are indicated per experiment. On day 0, mice were immunised by intramuscular injection with 10^9 Ad-TSHR or Ad-LacZ viral particles and the immunisation was repeated three weeks later. Five weeks after the first immunisation, blood and spleens were collected.

[3] = system: Total thyroxine (T4); test: Detection of hyperthyroidism: total thyroxine (T4) in serum by ELISA; assay type: in vivo, DR3tg mice
Protocol: Total thyroxine (T4) was measured in undiluted mouse serum (10 μl) using the CBI mouse/rat thyroxine ELISA kit (Calbiotech, Spring Valley, Calif., USA) according to the manufacturer's instructions. T4 values were computed from standards in the kit and expressed as μg/dl.
as §2, with “experiment. Starting on the day of the first peptide treatment until termination of the experiment, mice were treated either MMI or propranolol.” for “experiment.”
Total thyroxine (T4) was measured in undiluted mouse serum (10 μl) using the CBI mouse/rat thyroxine ELISA kit (Calbiotech, Spring Valley, Calif., USA) according to the manufacturer's instructions. T4 values were computed from standards in the kit and expressed as μg/dl. In addition to serum T4 determinations, thyroid histology was used as a parameter for hyperthyroidism. Thyroid glands were fixed in 10% neutral buffered formalin (pH 7.5), processed to sections and stained with hematoxylin and eosin.

[4] = Propranolol levels in mouse plasma by LC-MSMS; assay type: in vivo, DR3tg mice; settings: 10 mg/kg/day IP; 60-90 minutes post-dose; weeks 0 and 5; FIG. 18
Protocol: Blood samples were collected between 60 and 90 minutes post-dose and individual plasma levels compared between W0 and W5.

[5] = system: TSHR-induced T cell proliferation; test: Ex vivo tolerization experiment: TSHR-induced proliferation of LN cells and splenocytes after peptide pretreatment; assay type: in vivo, DR3tg mice; settings: vs control-treated; s.c. dose escalation schedule; top dose 5D-K1 100 μg, 9B-N 33 μg, ATX-GD-59 15 nmol/peptide; 10 days after parental peptide/CFA immunization
Protocol: DR3tg mice were injected subcutaneously in the flank region with 0.1 μg, 1 μg and 10 μg peptides on days −15, −13 and −11 respectively, followed by 3 injections of 100 μg (top dose/peptide) soluble peptide (5D-K1 or 9B-N) on days −8, −6 and −4 (dose escalation schedule). The ATX-GD-59 is an equimolar mix of the peptides 5D-K1 (SEQ ID NO:1) and 9B-N (SEQ ID NO:2) and the top dose mentioned (nmol) is per peptide in the cocktail. A peptide dose of 100 ug corresponds to ˜45 nmol as both systems been used in different experiments. The peptides were administered subcutaneous in PBS. Alterations in top doses/peptide, and correspondingly in dose escalation doses, are indicated per experiment. On day 0, the mice were immunized subcutaneously in the base of the tail with 50 μg corresponding to the parental peptide (non-modified 5D and/or 9B) emulsified in Complete Freund adjuvants (CFA; 2 mg/ml Mycobacterium tuberculosis H37RA (Difco Laboratories, Michigan, US) in Incomplete Freund adjuvant (Difco)) (50 μg peptide in 100 μL CFA (100 μg H37RA)/injection). Ten days after immunization, draining LN and spleens were harvested. LN cells and splenocytes were isolated and cultured in X-vivo 15 medium supplemented with 2 mM L-glutamine, 50 U/mL penicillin and 50 U/mL streptomycin (all Lonza, Verviers, Belgium) in 96-well flat bottom plates. To investigate antigen-induced cell proliferation, 0.5×10^6 cells/well were cultured (200 μL/well) for 72 hours with TSHR-ECD in a concentration range of 0-25 μg/mL or with 12.5 μg/mL purified protein derivative (PPD; immunisation control; Statens serum institut, Copenhagen, Denmark). After 72 hours in a 37° C. incubator with 5% CO2, 60 μL of cell supernatant was harvested and frozen. 20 μL/well of tritiated thymidine (PerkinElmer, Zaventem, Belgium) were then added to the cells to obtain a final concentration of 1 μCi/well. The cells were incubated at 37° C. and 5% CO2, and after 16 h, plates were frozen. Thawed plates were harvested and read on a β-counter (Wallac 1450 Microbeta Trilux Liquid Scintillation Counter) to assess cell proliferation.
DR3tg or DR4tg mice were injected subcutaneously in the flank region with 0.1 μg, 1 μg and 10 μg of peptide on days −15, −13 and −11 respectively, followed by 3 injections of 33, 75 or 100 μg peptide (depending on top dose, see Figure legends) on days −8, −6 and −4 (dose escalation schedule). Alterations in top doses, and correspondingly in dose escalation doses, are indicated per experiment. On day 0, the mice were immunised subcutaneously in the base of the tail with 50 μg antigen (non-modified parental 15-mer peptide) emulsified in CFA (peptide/CFA). […] Thawed plates were harvested and read with β-counter (Wallac 1450 Microbeta Trilux Liquid Scintillation Counter) to assess the cell proliferation.

[6] = system: Antigen-specific T cell hybridomas with fixed or not fixed VAVY or BM14 cells (APCs); test: Antigen Processing Independent Presentation System (APIPS) assay; assay type: cell-based; settings: 25 μg/ml peptide; fixed or fresh VAVY (DR3) or BM14 (DR4) APCs; 48 h; IL-2 ELISA
Protocol: 5×10^4 T cell hybridoma clones specific for RNB-5 (clone 50+35) or RNB-4 (clone 164+455) and TSHR were cultured in presence of TSHR and RNB-5D-K1 or RNB-4K-GKK in combination with 5×10^4 human DR3 expressing antigen presenting B cells (VAVY) (clone 50) or with DR4 expressing antigen presenting B cells (BM14) (Clone 35, 164, 455). Antigen-Presenting Cells (APC) were viable or previously fixed with 0.5% paraformaldehyde prior to addition to the culture wells. After 48 h of co-culture, the supernatants were harvested and analysed by ELISA to assess levels of IL-2 secretion. Results from representative clones are presented.
Antigen-specific T cell hybridomas were tested for their reactivity to the peptides, presented by fixed or not fixed VAVY or BM14 cells (=APCs). 5×10^4 cells from the individual clones were cultured with 25 μg/ml peptide and 5×10^4 fixed or fresh APCs. To fixate APCs, cells were incubated with 0.5% paraformaldehyde (Merck, Darmstadt, Germany) (pH7) for 5 min at room temperature (RT). The fixation reaction was stopped by adding 0.4M glycine (Sigma-Aldrich) and washing the cells in RPMI-10% FCS. Additionally, reactivity towards human TSHR-ECD protein (Chesapeake-PERL, Savage, Md., USA) was measured to identify epitopes. After 48 h, antigen-induced IL-2 production was measured by ELISA.

[7] = co-medication MMI 500 μg daily + ATX-GD-459 15 nmol

Cn1cc[nH]c1=S [MMI, methimazole]
effect on TSHR-specific splenocyte proliferation, MMI co-medication study [1]: significant reduction | effect on anti-TSHR antibody levels, MMI study ([2]; MMI 500 μg daily s.c. osmotic pump, 10^9 Ad-TSHR): had no effect | effect on anti-TSHR IgG isotypes, MMI study ([2]; MMI 500 μg daily, 10^9 Ad-TSHR): had no effect | changes in anti-TSHR IgG levels, model validation ([2]; MMI 50 or 500 μg/mouse/day s.c. pump for 4 weeks, Ad-TSHR week 0 and 3): no changes | effect on antibody reducing capability of ATX-GD-459 (IgG isotypes), MMI study [2, 7]: did not affect | influence on antibody reducing capability of ATX-GD-459 (total IgG), MMI study [2, 7]: did not influence | T4 levels, MMI 50 μg daily, model validation ([3]; 50 μg dose): only showed a trend towards reduced T4 levels | T4 levels, MMI 500 μg daily, model validation ([3]; daily dose of 500 μg, both at 2 and 4 weeks after first immunisation): significantly reduced | effect on serum T4 levels, MMI co-medication study ([3]; week 5, MMI 500 μg daily, ATX-GD-459 15 nmol top dose, 10^9 Ad-TSHR): significantly reduced

CC(C)NCC(O)COc1cccc2ccccc12 (centres unmarked) [propranolol, Propranolol hydrochloride]
Total T4 levels, propranolol co-medication study ([3]; week 5, propranolol 10 mg/kg/day IP, ATX-GD-459 15 nmol, 10^10 Ad-TSHR): not affected | plasma levels of propranolol [4]: confirms pharmacological dose

GLKMFPDLTKVYSTD (H-GLKMFPDLTKVYSTD-NH2) [Peptide 9B-N, TSHR peptide]
reduction of TSHR-induced T cell proliferation, LN samples [5]: 33% | reduction of TSHR-induced T cell proliferation, spleen samples [5]: 41%

KKGNLPNISRIYVSIDVTGKK (H-KKGNLPNISRIYVSIDVTGKK-NH2) [RNB-4K-GKK, modified TSHR apitope peptide]
apitope status (presentation by fixed APCs, IL-2 secretion) [6]: confirmed to be apitopes

KKKKYVSIDVTLQQLESHKKK (H-KKKKYVSIDVTLQQLESHKKK-NH2) [Peptide 5D-K1, modified TSHR apitope peptide]
reduction of TSHR-induced T cell proliferation, LN samples [5]: 60% | reduction of TSHR-induced T cell proliferation, spleen samples [5]: 43% | apitope status (presentation by fixed APCs, IL-2 secretion) [6]: confirmed to be apitopes
